Article PMC4910235, “Selenophene and thiophene-core estrogen receptor ligands that inhibit motility and development of parasitic stages of Haemonchus contortus” (Parasites & Vectors, 2016)
Read-outs that look alike come from different tables or passages of the source.

Key:
[1] = tested on: exsheathed third-stage larvae (xL3s) of H. contortus; assay: xL3 motility assay (whole-organism screen and dose-response); assay type: cell-based, Haemonchus contortus; details: for activity at 20 µM: Haemonchus contortus, 72 h, percent of motility compared with controls, mean of triplicate ± SEM
Method: The selenophene and thiophene-core ligands (n = 74) (Additional file 1) were screened at a concentration of 20 μM on exsheathed third-stage larvae (xL3s) of H. contortus in 96-well microculture plates (cat. no. 3635; Corning 3650, Life Sciences, Corning, USA) using relevant control compounds (i.e. moxidectin and monepantel), as described previously. In brief, compounds were dissolved to a stock concentration of 10 mM in either dimethyl sulfoxide (DMSO) or methanol (Sigma-Adrich Scientific, St. Louis, USA). These ligands were then individually diluted to the final concentration of 20 μM using Luria Bertani medium (LB) supplemented with 100 IU/ml of penicillin, 100 μg/ml of streptomycin and 2.5 μg/ml of amphotericin (LB*). Compounds were dispensed (in triplicate) into the wells of a 96-well microculture plate using a multichannel pipette. In addition, the negative controls (LB*, LB* + 0.5 % solvent; six wells each), and positive controls (20 μM of monepantel; Zolvix, Novartis Animal Health, Basel, Switzerland and 20 μM of moxidectin; Cydectin, Virbac, Carros, France; triplicate wells) and xL3s (~300/well) were dispensed into wells of the plate using an automated multichannel pipette (Viaflo Assist/II, Integra Biosciences, Zizers, Switzerland). […], a video recording (5 s) was taken of each well of the 96-well microculture plate (containing xL3s) using a greyscale camera (Rolera Bolt CMOS, Qimaging Scientific, Surrey, Canada) and a motorised X-Y axis stage (BioPoint 2, Ludl Electronics Products, Hawthorne, USA). Individual videos were processed to calculate a motility index (MI) using an algorithm described previously. MIs were normalised to the negative and positive controls (to remove plate-to-plate variation) using the program Prism (v.6 GraphPad Software, USA). Z’-scores were calculated to validate the performance of the screening assay; reliable assays achieve Z’-scores of between 0.5 and 1 [28]. A compound was recorded as having an activity if it reduced xL3 motility by ≥ 70 % following incubation for 72 h. […] Compounds that reduced the motility of xL3s were also tested for their ability to inhibit the motility of L4s (same protocol as for xL3s) and/or to affect the development of xL3s to L4s. Following the measurement of L4 motility, larvae were re-incubated for 4 more days and fixed with 1 % iodine (50 μl). Then, L4 development was assessed based on the presence of a well-developed mouth/pharynx using a light microscope and expressed as a percentage of the total number of larvae examined (n = 30).
All assays (to assess xL3 motility, L4 development and L4 motility) were performed in triplicate, three times, on separate days.

[2] = read-out: xL3 Motility Index(%), 20 μM, 72 h
[3] = 20 μM, read-out: xL3 Motility Index(%)

Row | melting point [°C] | Compound | activity at 20 µM [1, 2] [%] | activity on xL3 motility, in words ([1]; 20 μM) | activity at 20 µM [1, 3] [%]
1 | – | Oc1ccc(-c2ccc(-c3ccc(O)cc3F)[se]2)c(F)c1 [WZY-3] | 100 ± 7.7 | – | –
2 | – | Oc1ccc(-c2ccsc2-c2ccc(O)cc2Cl)c(Cl)c1 [MJ-32] | – | lost all activity | 102 ± 3.6
3 | 121 to 125 | COc1ccc(-c2cscc2-c2ccc(OC)cc2Cl)c(Cl)c1 [MJ-4] | – | Poor activity | 81.6 ± 15.7
4 | – | COc1c(C)cc(-c2cc(Br)c(-c3cc(C)c(OC)c(C)c3)[se]2)cc1C [WZY-5] | 105 ± 18.6 | “lost” activity | –
5 | – | Oc1ccc(-c2cc(Br)c(-c3ccc(O)c(Cl)c3)[se]2)cc1Cl [WZY-4] | 123 ± 7.8 | “lost” activity | –
6 | – | Cc1cc(-c2cscc2-c2ccc(O)c(C)c2)ccc1O [MJ-33] | – | poor activity | 85.5 ± 10.6
7 | – | COc1ccc(-c2ccc(-c3ccc(OC)cc3Cl)[se]2)c(Cl)c1 [WZY-1] | 77.9 ± 6.6 | limited reduction in motility | –
8 | – | Oc1ccc(-c2ccc(-c3ccc(O)cc3Cl)s2)c(Cl)c1 [MJ-29] | – | – | 66.6 ± 2.7
9 | – | Oc1ccc(-c2cscc2-c2ccc(O)cc2)cc1 [MJ-35] | – | complete loss of activity | 102 ± 1.5
